This note sets out measurements from patent US20080249136A1, “Antimicrobial Composition and Method” (priority 2005, published 2008).

For experiment [1], the system named is Pseudomonas aeruginosa ATCC #10145. Briefly: Efficacy (log kill) against Pseudomonas aeruginosa, 96-well assay block. The class given is cell-based. The method, then:
(§1) The cationic polymers are pH adjusted in the range of 6-7.5. It should be noted that the Ecopol polymers require an acidic environment for complete dissolution. Once the polymer is dissolved, NaOH can be used to bring the pH to the desired range.
(§2) The efficacy of the antimicrobial combinations against Staphylococcus aureus ATCC #6538 and Pseudomonas aeruginosa ATCC #10145 is measured. Testing is done in 96-well 1.5 ml polypropylene assay blocks using 96-well polypropylene sealing mats for covering the samples during incubation. The individual wells in the 96-well assay block are identified as follows: 12 columns numbered 1-12 across the top row of wells on the block, and 8 rows lettered A-H on the first column of the block. Columns 1 and 2 are reserved to test the activity of the biocide in buffer (pH 7.2) in the absence of the cationic polymer. Columns 11 and 12 are always reserved as control, to verify growth of the microorganism in the absence of the biocide. The preparation of the assay blocks involves the following steps in chronological order:
(§3) 1. Preparation of the biocide solution in an appropriate solvent at a concentration equal to 10 times the final concentration desired in row A; 2. Addition of predetermined amount of the stock biocide solution to each well in row A; 3. Addition of a predetermined amount of the solvent to rows B-H and wells 11A and 12A; 4. Serial dilution of the biocide, by transferring a predetermined amount of the solution from row A to row B, mixing, and repeating the transfer down all the rows. After the mixing step in row H, the transferring amount is taken out and disposed of; 5. Inoculation of the buffer and polymer solutions with the test organism. For bacteria, a 24-hour culture is used. Following the incubation period, the organism concentration in the medium is determined by reading the OD at 620 nm. This culture is used to inoculate the buffer and the polymer solution to a bacterial concentration of 1E6 cfu/ml. Fungal challenges are performed with fungal spores isolated from inoculated SDA slants. The spores are collected by swiping the slant with a sterile cotton swab and re-suspended in tryptic soy broth. Tween 80 is added to aid in spore separation and the suspension was homogenized. The spore concentration is obtained by use of a hemacytometer. This suspension is used to inoculate the buffer and the polymeric solutions to a spore concentration of 3-5E6 cfu/ml; 6. Addition of the inoculated buffer or polymer solution to each well. 7. Thorough mixing of the blends in each well; 8. Sampling for the time 0, 24 h, 48 h and 7 days reading is accomplished using a 96-well 300 μl polystyrene microplate. Tryptic Soy broth (TSB) is used for the bacterial studies and Malt (YM) broth buffered at pH 7.4 for fungal studies; 9. The microplates are incubated at 35° C. for bacteria and 30° C. for fungus, until the control samples show adequate growth; and 10. Data is recorded as the log reduction in microorganism concentration relative to the inoculum.

Experiment [2] has as its system Staphylococcus aureus ATCC #6538. Briefly: Efficacy (log kill) against Staphylococcus aureus, 96-well assay block. Type of experiment: cell-based. The protocol: as §1, §2, §3

In the case of zinc pyrithione [ZPT], the “control of P. aeruginosa before 48 h” value in experiment [1] (800 ppm active, before 48 h) is on record as “no control”. For the same substance, the “Log kill 24 h” value in experiment [1] (Active Conc. 46.8 ppm) is on record as 0 log; in experiment [1] (Active Conc. 533.3 ppm), 0 log; in experiment [1] (Active Conc. 800 ppm) it was 0 log; in experiment [2] (Active Conc. 5.9 ppm), 0 log; in experiment [2] (Active Conc. 29.6 ppm), 0 log; in experiment [2] (Active Conc. 100 ppm) it was 0.5 log. Moreover, the “Log kill 48 h” value in experiment [1] (Active Conc. 46.8 ppm) came out at 0 log; in experiment [1] (Active Conc. 533.3 ppm), 1.5 log; in experiment [1] (Active Conc. 800 ppm), 2 log; in experiment [2] (Active Conc. 5.9 ppm) it was 1 log; in experiment [2] (Active Conc. 29.6 ppm), 1 log; in experiment [2] (Active Conc. 100 ppm) it was 1.5 log. In addition, the “Log kill 7 days” value in experiment [1] (Active Conc. 46.8 ppm) was found to be 2 log; in experiment [1] (Active Conc. 533.3 ppm) it was 3 log; in experiment [2] (Active Conc. 5.9 ppm) it was 1 log; in experiment [2] (Active Conc. 29.6 ppm) it was 1 log; in experiment [2] (Active Conc. 100 ppm), 2 log. The “Log kill t0” value was determined as 0 log in experiment [1] (Active Conc. 46.8 ppm); 0 log in experiment [1] (Active Conc. 533.3 ppm); 0 log in experiment [1] (Active Conc. 800 ppm); 0 log in experiment [2] (Active Conc. 5.9 ppm); 0 log in experiment [2] (Active Conc. 29.6 ppm); 1 log in experiment [2] (Active Conc. 100 ppm).
